Experiment [1] deals with MUC1-wt. In words: High-content imaging assay of MUC1-wt total cytoplasm intensity in P cells. The class given is cell-based. To be noted: for EC50: MUC1-wt total cytoplasm intensity, P cells, 48 hr incubation; for WT ECMax: MUC1-wt, DMSO = 0, JQ1 (250 nM) = −100% activity. On the procedure: (§1) P cells were seeded 24 hr prior to compound treatment at a density of 12,000 cells/well in 384 well Cell Carrier Ultra plates (6057308, Perkin Elmer), pre-coated with 0.25 mg/mL Synthemax 11 SC Substrate (3535, Corning). Compounds were used at 5 doses (35, 3.5, 0.35, 0.035 and 0.0035 μM) for the primary screen and 10 doses (16, 5.6, 1.8, 0.6, 0.21, 0.07, 0.02, 0.008, 0.002 and 0.0008 μM) for the following screens. The compounds, in two replicates, were transferred from compound source plates to the cell plates using the HighRes Pin Tool. DMSO was used as a negative control and JQ1 (250 nM) (a bromodomain inhibitor) was chosen as a positive control, based on earlier studies showing its potent effect on reducing total MUC1 mRNA levels (data not shown). After 48 hr incubation, cells were fixed for 20 min in 4% PFA (Electron Microscopy Sciences) in PBS, washed twice, then permeabilized (10 min) with 0.5% Triton-X100 (X100-100MVL, Sigma-Aldrich) in PBS and washed once more. Cells were blocked for 10 min at RT with Blocking solution (100 mM Tris HCL pH8; l150 mM NaCL; 5 g/L Blocking Reagent [11096176001, Roche]), then incubated 90 min at RT with one of the following primary antibodies in Roche Blocking solution: 1:500, monoclonal Fab-A-V5H anti-MUC1-fs, AbD22655.2, Bio-Rad; 1:2000, monoclonal mouse anti-MUC1 (214D4), 05-652-KC, Millipore; 1:1000, monoclonal, Rabbit anti-GM130 (D6B1) XP, 12480, Cell signaling technology. The primary antibody cocktail was incubated at RT for 1.5 hr, followed by four PBS wash cycles. The secondary antibody cocktail contained four components that were all prepared at a 1:1000 dilution in the Roche blocking solution and consisted of Alexa Fluor® 488-conjugated AffiniPure F(ab′)2 Fragment Goat anti-Human IgG, 109-546-097, Jackson Immunoresearch; Alexa Fluor® 647-conjugated Goat anti-Rabbit IgG, A-21246, Thermo Fisher Scientific®; Alexa Fluor® 546 Goat anti-mouse IgG, A-21123, Thermo Fisher Scientific® and Hoechst 33342 stain (62249, Thermo Fisher Scientific®). The secondary antibody cocktail was incubated at RT for 45 min, followed by four PBS wash cycles. Finally, plates were sealed with a Plate Loc plate and stored in Liconic incubator at 10° C. until imaging. Following image analysis, three parameters were selected, i) MUC1-fs and ii) MUC1-wt total cytoplasm intensity (averaged per cell) and iii) cell number as was detected by Hoechst 33342 stained nuclei. The levels of MUC1-fs and MUC1-wt found following DMSO and JQ1 were defined as 0 and −100% activity, respectively. The values obtained for all compounds were normalized accordingly. Cell number was normalized to DMSO control.
(§2) The pure enantiomers were profiled in the high-content imaging assay for the ability to reduce the amount of FS MUC1 protein in the cytoplasm (Table 48) following the procedure of Example 4.

For experiment [2], the system named is MUC1-fs. In words: High-content imaging assay of MUC1-fs total cytoplasm intensity in P cells. The class given is cell-based. The settings on record: for EC50: MUC1-fs total cytoplasm intensity, P cells, 48 hr incubation; for ECMax: MUC1-fs, DMSO = 0, JQ1 (250 nM) = −100% activity. On the procedure: as §1, §2
The mark [3] stands for this setting: high-content imaging assay, procedure of Example 4.

In the case of `CC(C)C1C2CCC(C2)C1N.Cl` (racemic) [BRD4780, rac-3-exo-isopropylbicyclo[2.2.1]heptan-2-endo-amine hydrochloride, reference compound], the “reduction in wild-type MUC1 levels” value in experiment [1] (setting [3]) is reported as “no observed reduction”.
Consider `CC(C)[C@H]1[C@H]2CC[C@H](C2)[C@H]1N.Cl` (racemic) [Compound 103, rac-3-endo-isopropylbicyclo[2.2.1]heptan-2-endo-amine hydrochloride], for which, in experiment [2], it took 2.14 µM to reach a half-maximal effect (EC50) and the ECMax was −83.25%. Also, in experiment [1], the EC50 (commonly the concentration needed to bring the measured effect to its halfway point) was more than 32 µM and the “WT ECMax” value is recorded as −13.31%.
On to `CCC[C@@H]1[C@H]2CC[C@H](C2)[C@H]1N.Cl` (racemic) [Compound 107-rac], for which, in experiment [2], the EC50 is more than 32 µM and the ECMax worked out at 10.08%. In experiment [1], the EC50 is more than 32 µM and the “WT ECMax” value is on record as 8.64%.
With `CCC[C@H]1[C@H]2CC[C@H](C2)[C@@H]1N.Cl` (racemic) [Compound 108-rac], in experiment [2], the EC50 was more than 32 µM and the ECMax is recorded as −8.01%. Also, in experiment [1], the EC50 is more than 32 µM and the “WT ECMax” value is given as −4.32%.
Regarding `Cl.N[C@@H]1[C@@H]2CC[C@@H](C2)[C@H]1C1CC1` (racemic) [Compound 109], in experiment [2], the EC50 amounted to 0.45 µM and the ECMax was −73.56%. In experiment [1], the concentration for a half-maximal effect (EC50) was more than 32 µM and the “WT ECMax” value is −12.5%.
With `CC(C)C[C@@H]1[C@H]2CC[C@H](C2)[C@H]1N.Cl` (racemic) [Compound 111], in experiment [2], the EC50 is more than 32 µM and the ECMax is −9.02%. In experiment [1], the 50% effective concentration (EC50) was more than 32 µM and the “WT ECMax” value is 10.58%.
Consider `CC(C)C[C@H]1[C@H]2CC[C@H](C2)[C@@H]1N.Cl` (racemic) [Compound 112], for which, in experiment [2], the EC50 was more than 32 µM and the ECMax is recorded as 18.48%. For the same compound, in experiment [1], the EC50 was more than 32 µM and the “WT ECMax” value is on record as −8.84%.
For `Cl.N[C@@H]1[C@@H]2CC[C@@H](C2)[C@H]1C1CCC1` (racemic) [Compound 113], in experiment [2], the EC50 came to 0.478 µM and the ECMax is −46.53%. Moreover, in experiment [1], the EC50 was more than 32 µM and the “WT ECMax” value worked out at 13.12%.
Regarding `Cl.N[C@H]1[C@@H]2CC[C@@H](C2)[C@@H]1C1CCC1` (racemic) [Compound 114-rac], in experiment [2], the half-maximal effective concentration (EC50) was 12.9 µM and the ECMax is recorded as −44.74%. In experiment [1], the EC50 was more than 32 µM and the “WT ECMax” value is 18.3%.
Consider `CC(C)(C)[C@@H]1[C@H]2CC[C@H](C2)[C@H]1N.Cl` (racemic) [Compound 115], for which, in experiment [2], a half-maximal effect (EC50) was put at 0.295 µM and the ECMax was −79.02%. In experiment [1], a half-maximal response (EC50) required 12.3 µM and the “WT ECMax” value came out at 71.79%.
The like results for `Cl.N[C@@H]1[C@@H]2CC[C@@H](C2)[C@H]1C1CCCCC1` (racemic) [Compound 118] were, in that order, more than 32 µM, −9.08%, more than 32 µM and −8.52%.
With `Cl.N[C@H]1[C@@H]2CC[C@@H](C2)[C@@H]1C1CCCCC1` (racemic) [Compound 119], in experiment [2], the EC50 is more than 32 µM and the ECMax stood at 20.39%. Further, in experiment [1], the EC50 was more than 32 µM and the “WT ECMax” value is given as 14.48%.
Consider `Cl.N[C@@H]1[C@@H]2CC[C@@H](C2)[C@H]1c1ccccc1` (racemic) [Compound 120], for which, in experiment [2], the concentration giving a half-maximal response (EC50) was more than 32 µM and the ECMax is listed as −27.71%. Also, in experiment [1], the concentration giving a half-maximal response (EC50) was more than 32 µM and the “WT ECMax” value was found to be 15.88%.
For `Cl.N[C@@H]1[C@@H]2CC[C@@H](C2)[C@H]1c1cccs1` (racemic) [Compound 122], in experiment [2], the EC50 is more than 32 µM and the ECMax was −12.17%. In experiment [1], the concentration giving a half-maximal response (EC50) is more than 32 µM and the “WT ECMax” value is given as −10.53%.
Turning to `CC(C)[C@H]1[C@@H]2CC[C@@H](C2)[C@@H]1N.Cl` (single isomer, unassigned) [BRD4780 Fr1, hydrochloride], the concentration for half-maximal inhibition (IC50) (in general, the point on the concentration scale where inhibition reaches its midpoint) was determined as 0.156 µM in experiment [2] (setting [3]) and 9.2 µM in experiment [2] (second pair of columns (c3-c4)).
In the case of `CC(C)[C@H]1[C@@H]2CC[C@@H](C2)[C@@H]1N.Cl` (single isomer, unassigned) [BRD4780 Fr1], the “FS MUC1 cytoplasm EMax (%)” value was −42% in experiment [2] (setting [3]) and 113% in experiment [2] (second pair of columns (c3-c4)).
As for `CC(C)[C@@H]1[C@H]2CC[C@H](C2)[C@H]1N.Cl` (single isomer, unassigned) [BRD4780 Fr2, hydrochloride], the half-maximal inhibitory concentration (IC50) in experiment [2] (setting [3]) is 0.175 µM; in experiment [2] (second pair of columns (c3-c4)) it was 12.6 µM.
On to `CC(C)[C@@H]1[C@H]2CC[C@H](C2)[C@H]1N.Cl` (single isomer, unassigned) [BRD4780 Fr2], for which the entries for the “FS MUC1 cytoplasm EMax (%)” value in experiment [2] (setting [3]) and in experiment [2] (second pair of columns (c3-c4)) were −46% and 60%, respectively.
Take `C[C@@H]1[C@H]2CC[C@H](C2)[C@H]1N.Cl` (single isomer, unassigned) [Compound 104-P1, (1R,2R,3R,4S)-3-methylbicyclo[2.2.1]heptan-2-amine hydrochloride]: the EC50 in experiment [2] is 19.6 µM; in experiment [1] it was more than 32 µM.
In the case of `C[C@@H]1[C@H]2CC[C@H](C2)[C@H]1N.Cl` (single isomer, unassigned) [Compound 104-P1], in experiment [2], the ECMax is −47.64%. Besides, the “WT ECMax” value in experiment [1] is −13.75%.
On to `C[C@@H]1[C@H]2CC[C@H](C2)[C@H]1N.Cl` (single isomer, unassigned) [Compound 104-P2, hydrochloride], for which the EC50 in experiment [2] was 4.5 µM; in experiment [1], more than 32 µM.
Regarding `C[C@@H]1[C@H]2CC[C@H](C2)[C@H]1N.Cl` (single isomer, unassigned) [Compound 104-P2], the ECMax in experiment [2] was −78.16%. Also, the “WT ECMax” value in experiment [1] is given as −14.86%.
Regarding `Cl.N[C@@H]1[C@@H]2CC[C@@H](C2)[C@H]1C1CC1` (single isomer, unassigned) [Compound 109-P1], in experiment [2], the EC50 is more than 32 µM and the ECMax is −32.29%. In experiment [1], the EC50 is more than 32 µM and the “WT ECMax” value turned out to be 9.06%.
In the case of `Cl.N[C@H]1[C@H]2CC[C@H](C2)[C@@H]1C1CC1` (single isomer, unassigned) [Compound 109-P2], in experiment [2], the response was half-maximal at 0.52 µM (EC50) and the ECMax is given as −74.31%. In addition, in experiment [1], the EC50 was more than 32 µM and the “WT ECMax” value is −14.32%.
As for `Cl.N[C@H]1[C@@H]2CC[C@@H](C2)[C@@H]1C1CC1` (single isomer, unassigned) [Compound 110-P1, (1R,2S,3S,4S)-3-cyclopropylbicyclo[2.2.1]heptan-2-amine hydrochloride], the half-maximal effective concentration (EC50) was 8.49 µM in experiment [2] and more than 32 µM in experiment [1].
For the compound `Cl.N[C@H]1[C@@H]2CC[C@@H](C2)[C@@H]1C1CC1` (single isomer, unassigned) [Compound 110-P1], the ECMax in experiment [2] is given as −50.96%. Also, the “WT ECMax” value in experiment [1] is listed as −8.95%.
For `Cl.N[C@@H]1[C@H]2CC[C@H](C2)[C@H]1C1CC1` (single isomer, unassigned) [Compound 110-P2, (1S,2R,3R,4R)-3-cyclopropylbicyclo[2.2.1]heptan-2-amine hydrochloride], the values for the EC50 in experiment [2] and in experiment [1] were 3.38 µM and more than 32 µM, respectively.
For the compound `Cl.N[C@@H]1[C@H]2CC[C@H](C2)[C@H]1C1CC1` (single isomer, unassigned) [Compound 110-P2], the ECMax in experiment [2] is on record as −47.09%. In experiment [1], the “WT ECMax” value is −12.31%.
Turning to `CC(C)C[C@@H]1[C@H]2CC[C@H](C2)[C@H]1N.Cl` (single isomer, unassigned) [Compound 111-P1], in experiment [2], the EC50 is more than 32 µM and the ECMax is reported as −12.73%. For the same compound, in experiment [1], the EC50 was more than 32 µM and the “WT ECMax” value is reported as −10.33%.
Consider `CC(C)C[C@H]1[C@@H]2CC[C@@H](C2)[C@@H]1N.Cl` (single isomer, unassigned) [Compound 111-P2], for which, in experiment [2], the EC50 is more than 32 µM and the ECMax is recorded as −11.51%. In addition, in experiment [1], the EC50 is more than 32 µM and the “WT ECMax” value was −9.06%.

Values taken from patent US20240116850A1, “COMPOSITIONS AND METHODS RELATED TO BICYCLO[2.2.1] HEPTANAMINE-CONTAINING COMPOUNDS” (The Broad Institute, Inc., priority 2020, published 2024).
